According to ChEMBL document CHEMBL1146802, “Glyco-optimization of aminoglycosides: new aminoglycosides as novel anti-infective agents” (2004):
≈ marks a conversion by molar mass, not a printed value.

Legend:
Assay type in all cases: functional
[1] = test system: Escherichia coli; assay: In vitro inhibitory activity against Escherichia coli ATCC 25922
[2] = test system: Pseudomonas aeruginosa; assay: In vitro inhibitory activity against Pseudomonas aeruginosa ATCC 27853
[3] = test system: Staphylococcus aureus; assay: In vitro inhibitory activity against Staphylococcus aureus MRSA 33591
[4] = test system: Enterococcus faecalis; assay: In vitro inhibitory activity against Enterococcus faecalis ATCC 29212
[5] = test system: Staphylococcus aureus; assay: In vitro inhibitory activity against Staphylococcus aureus ATCC 29213
[6] = test system: Pseudomonas aeruginosa; assay: In vitro inhibitory activity against Pseudomonas aeruginosa ATCC 35151
[7] = test system: Pseudomonas aeruginosa; assay: In vitro inhibitory activity against Pseudomonas aeruginosa PAO-1
[8] = test system: Enterococcus faecalis; assay: In vitro inhibitory activity against Enterococcus faecalis ATCC 29212; Value ranges from 8-32 ug/mL
[9] = test system: Escherichia coli; assay: In vitro inhibitory activity against Escherichia coli ATCC 25922; Value ranges from 0.25-1 ug/mL
[10] = Escherichia coli, ATCC 25922, read-out: MIC
[11] = Pseudomonas aeruginosa, ATCC 27853, read-out: MIC
[12] = Enterococcus faecalis, ATCC 29212, read-out: MIC
[13] = Staphylococcus aureus, ATCC 29213, read-out: MIC
[14] = Pseudomonas aeruginosa, ATCC 35151, read-out: MIC
[15] = Pseudomonas aeruginosa, read-out: MIC

SMILES	MIC [1, 10] [µg/mL]	MIC [2, 11] [µg/mL]	MIC [3] [µg/mL]	MIC [4, 12] [µg/mL]	MIC [5, 13] [µg/mL]	MIC [6, 14] [µg/mL]	MIC [7, 15] [µg/mL]	MIC [1] [µg/mL]	MIC [2] [µg/mL]	MIC [5] [µg/mL]	MIC [4] [µg/mL]	MIC [6] [µg/mL]	MIC [7] [µg/mL]	MIC [8] [µg/mL]	MIC [9] [µg/mL]
CC1OC(OC2C(N)CC(N)C(OC3OC(CN)C(O)CC3N)C2O)C(N)C(O)C1O (centres undefined)	> 64	> 64	> 64	> 64	> 64	–	–	–	–	–	–	–	–	–	–
NCC1OC(OC2C(N)CC(N)C(OC3OCC(O)C(O)C3O)C2O)C(N)CC1O (centres undefined)	> 64	> 64	> 64	> 64	> 64	> 64	> 64	–	–	–	–	–	–	–	–
CC1CC(N(C)C)C(O)C(OC2C(N)CC(N)C(OC3OC(CN)C(O)CC3N)C2O)O1 (centres undefined)	16 (≈ 34.5 µM)	> 64	> 64	> 64	32 (≈ 69 µM)	32 (≈ 69 µM)	64 (≈ 138 µM)	–	–	–	–	–	–	–	–
NC[C@@H]1O[C@H](O[C@H]2[C@H](O)[C@H](O[C@H]3O[C@@H](CO)[C@@H](O)[C@H](O)[C@@H]3O)[C@H](N)C[C@H]2N)[C@@H](N)C[C@@H]1O	32 (≈ 68.3 µM)	16 (≈ 34.2 µM)	> 64	> 64	32 (≈ 68.3 µM)	16 (≈ 34.2 µM)	8 (≈ 17.1 µM)	–	–	–	–	–	–	–	–
NCC1OC(OC2C(N)CC(N)C(OC3OC(CN)C(O)C(O)C3N)C2O)C(N)CC1O (centres undefined)	32 (≈ 68.6 µM)	16 (≈ 34.3 µM)	> 64	> 64	8 (≈ 17.1 µM)	16 (≈ 34.3 µM)	8 (≈ 17.1 µM)	–	–	–	–	–	–	–	–
NCC1OC(OC2C(N)CC(N)C(OC3OCC(O)C(O)C3N)C2O)C(N)CC1O (centres undefined)	8 (≈ 18.3 µM)	16 (≈ 36.6 µM)	> 64	> 64	16 (≈ 36.6 µM)	–	–	–	–	–	–	–	–	–	–
CC1OC(OC2C(N)CC(N)C(OC3OC(CN)C(O)CC3N)C2O)C(O)C(O)C1O (centres undefined)	> 64	> 64	> 64	> 64	> 64	> 64	> 64	–	–	–	–	–	–	–	–
NCC1OC(OC2C(N)CC(N)C(OC3OCC(O)C(N)C3O)C2O)C(N)CC1O (stereo in doubt; 8u)	–	–	–	–	–	–	–	2 (≈ 4.57 µM)	2 (≈ 4.57 µM)	2 (≈ 4.57 µM)	–	–	–	–	–
NCC1OC(OC2C(N)CC(N)C(OC3OCC(O)C(N)C3O)C2O)C(N)CC1O (stereo in doubt; 8v)	–	–	> 64	> 64	–	–	–	>64	>64	32 (≈ 73.1 µM)	–	–	–	–	–
NCC1OC(OC2C(N)CC(N)C(OC3OC(CO)C(O)C(N)C3N)C2O)C(N)CC1O (stereo in doubt; form 1)	–	–	–	–	–	1 (≈ 2.14 µM)	1 (≈ 2.14 µM)	–	2 (≈ 4.29 µM)	1 (≈ 2.14 µM)	32 (≈ 68.6 µM)	–	–	–	–
NCC1OC(OC2C(N)CC(N)C(OC3OC(CO)C(N)C(O)C3N)C2O)C(N)CC1O (stereo in doubt; form 1)	–	–	–	–	–	–	–	32 (≈ 68.6 µM)	32 (≈ 68.6 µM)	8 (≈ 17.1 µM)	>64	16 (≈ 34.3 µM)	16 (≈ 34.3 µM)	–	–
NCC1OC(OC2C(N)CC(N)C(OC3OC(CO)C(N)C(N)C3O)C2O)C(N)CC1O (stereo in doubt; form 1)	–	–	> 64	> 64	–	–	–	–	>64	32 (≈ 68.6 µM)	–	>64	>64	–	–
NCC1OC(OC2C(N)CC(N)C(OC3OC(CO)C(O)C(N)C3N)C2O)C(N)CC1O (stereo in doubt; form 2)	> 64	–	> 64	> 64	–	–	–	–	>64	64 (≈ 137 µM)	–	–	–	–	–
NCC1OC(OC2C(N)CC(N)C(OC3OC(CO)C(N)C(O)C3N)C2O)C(N)CC1O (stereo in doubt; form 2)	–	–	> 64	32 (≈ 68.6 µM)	–	–	–	2 (≈ 4.29 µM)	2 (≈ 4.29 µM)	1 (≈ 2.14 µM)	–	1 (≈ 2.14 µM)	1 (≈ 2.14 µM)	–	–
NCC1OC(OC2C(N)CC(N)C(OC3OC(CO)C(N)C(N)C3O)C2O)C(N)CC1O (stereo in doubt; form 2)	–	–	–	–	–	–	–	–	2 (≈ 4.29 µM)	1 (≈ 2.14 µM)	64 (≈ 137 µM)	1 (≈ 2.14 µM)	2 (≈ 4.29 µM)	–	–
NC[C@H]1O[C@H](O[C@H]2[C@H](O)[C@@H](O[C@H]3O[C@H](CO)[C@@H](O)[C@H](N)[C@H]3O)[C@H](N)C[C@@H]2N)[C@H](N)C[C@@H]1O [TOBRAMYCIN]	–	0.5 (≈ 1.07 µM)	> 64	–	0.5 (≈ 1.07 µM)	0.5 (≈ 1.07 µM)	0.5 (≈ 1.07 µM)	–	–	–	–	–	–	> 32	> 1
